Legend:
FD436 [1] = assay: MBC determination of nalidixic acid and rifampicin (growth on SBA plates); conditions: TSB, then SBA 37° C., 48 h
FD436 [2] = assay: MIC determination of nalidixic acid and rifampicin (broth dilution, Bioscreen turbidity); conditions: TSB, 37° C., 24 h

Compound	MBC for FD436 (FD436 [1])	MIC for FD436 (FD436 [2])
CO[C@H]1/C=C/O[C@@]2(C)Oc3c(C)c(O)c4c(O)c(c(/C=N/N5CCN(C)CC5)c(O)c4c3C2=O)NC(=O)/C(C)=C\C=C\[C@H](C)[C@H](O)[C@@H](C)[C@@H](O)[C@@H](C)[C@H](OC(C)=O)[C@@H]1C [Rifampicin]	0.0025 % (w/v)	0.0025 % (w/v)
CCn1cc(C(=O)O)c(=O)c2ccc(C)nc21 [Nalidixic acid]	0.00125 % (w/v)	0.00125 % (w/v)
